According to ChEMBL document CHEMBL5209576, “Membrane potential based assay for SLC5A7 using HEK-293 SLC5A7 OE cells” (2022):

Biological target: T1, High affinity choline transporter 1 (Homo sapiens, UniProt Q9GZV3)
T1 sequence (Q9GZV3 whole entry): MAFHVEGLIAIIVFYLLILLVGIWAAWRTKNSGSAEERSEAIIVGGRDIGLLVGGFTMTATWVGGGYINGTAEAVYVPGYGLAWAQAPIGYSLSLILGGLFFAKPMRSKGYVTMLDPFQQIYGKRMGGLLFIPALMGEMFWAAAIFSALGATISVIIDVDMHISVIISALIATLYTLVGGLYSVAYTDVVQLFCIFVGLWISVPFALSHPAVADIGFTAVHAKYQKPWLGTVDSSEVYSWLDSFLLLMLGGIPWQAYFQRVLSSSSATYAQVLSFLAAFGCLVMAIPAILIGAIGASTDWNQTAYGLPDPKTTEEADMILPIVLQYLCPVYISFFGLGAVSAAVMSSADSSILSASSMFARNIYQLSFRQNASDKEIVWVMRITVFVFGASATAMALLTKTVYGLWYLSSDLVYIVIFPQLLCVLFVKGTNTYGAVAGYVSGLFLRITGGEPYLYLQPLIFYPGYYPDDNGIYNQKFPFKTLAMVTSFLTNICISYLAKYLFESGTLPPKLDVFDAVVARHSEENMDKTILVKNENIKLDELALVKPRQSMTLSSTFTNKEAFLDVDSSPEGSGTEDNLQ
Experiment: Substrate uptake and inhibition of the High Affinity Choline Transporter 1 (CHT1, SLC5A7) as assessed by the fluorescent FLIPR membrane potential dye in HEK-293 JumpIN-SLC5A7 cells (PubChem AID: 1794811)
Format: functional, cell-based, HEK293

Question: For `C[N+]1(C)CCOC(O)(c2ccc(-c3ccc(C4(O)C[N+](C)(C)CCO4)cc3)cc2)C1.[Br-].[Br-]` (configuration not stated), which IC50 (hek293) is on record?
Answer: Its IC50 is “Inhibitor: Almost Complete Inhibition At A Concentration Of 10 Μm”.

Question: With `C[N+](C)(C)CCO.[Cl-]` [CHOLINE CHLORIDE] as the molecule, how does the EC50 read?
Answer: Its EC50 is 17 µM.
